Tested on: 935938-334-R-J1-PDC spheroids with HUVEC/MSC, viability
Experiment: Anticancer human tumor 935938-334-R-J1-PDC patient-derived small intestine adenocarcinoma cell line growth inhibition [PI3K]
Conditions: for IC50: curve of first compound; for viability, T/C: stronger effect = lower value
Source text: Combinatorial screen of targeted agents with the PI3K inhibitors inavolisib, alpelisib, duvelisib, and copanlisib in multi-cell type tumor spheroids
A high-throughput screen of multi-cell type tumor spheroids was designed to identify active combinations of targeted small molecules and PI3K pathway inhibitors. Complex spheroids include a stromal component modeled by human endothelial cells (HUVEC) and fibroblasts modeled by human mesenchymal stem cells (MSCs). The concentration ranges selected for each drug and investigational agent were based upon clinically achievable concentrations if the clinical Cmax of the agent was known.
Compounds. The drugs and investigational agents: inavolisib (NSC800729), alpelisib (NSC765974), duvelisib (NSC772469), copanlisib (NSC816437), ipatasertib (NSC767898), afuresertib (NSC778305), talazoparib (NSC767125), sapanisertib (NSC764658), selumetinib (NSC741078), tovorafenib (DAY101, NSC766906), vemurafenib (NSC761431), ravoxertinib (NSC781343), sotorasib (NSC818433), MRTX1133 (NSC 836407), abemaciclib (NSC 768073), palbociclib (NSC758247), venetoclax (NSC 766270), SY5609 (NSC837396), enzalutamide (NSC755605), and darolutamide (NSC825331), were obtained from the National Cancer Institute (NCI) Developmental Therapeutics Program Chemical Repository. The FDA-approved anticancer drug set is available from the NCI Developmental Therapeutics Program. […] The stock solutions were prepared in dimethyl sulfoxide (DMSO, Sigma-Aldrich, St. Louis, MO, cat. D2650) at 800-fold the tested concentration and stored at -70 degrees C prior to their use. All drugs and investigational agents were tested over a range starting from a high concentration at or near the clinical Cmax and decreasing in half-log increments. If the clinical Cmax for an agent had not been determined, the highest concentration tested was 10 microM.
Cell Culture. All cells were maintained in an incubator at 37 degrees C and 5% CO2 with 95% humidity. The PDC lines were cultured according to standard operating procedures established by the NCI PDMR (https://pdmr.cancer.gov/sops/default.htm). All PDCs were thawed and cultured in Matrigel-coated flasks prepared with a working solution of 1X Ham's F-12 nutrient mix, without supplementation (Invitrogen, Waltham, MA, cat. 11765054), 100 U/mL penicillin-streptomycin (Invitrogen, cat. 15140122), and 2.5% Matrigel (Corning Inc., Corning, NY, cat. 354248) for the first three passages. The 354836-022-R-J1-PDC, 475296-252-R-J1-PDC, and 997726-040-R-J2-PDC lines were cultured in 6A media, which includes advanced DMEM/F-12 (Thermo Fisher Scientific, cat. 12634028), 10 mM HEPES (Thermo Fisher Scientific, cat. 15630080), 1X GlutaMAX supplement (Thermo Fisher Scientific, cat. 35050061), 0.1 mg/mL primocin (InvivoGen, San Diego, CA, cat. ant-pm-2), 10% defined fetal bovine serum, heat inactivated (HyClone Laboratories Inc., Logan, UT, cat. SH30070.03HI), 50% L-WRN conditioned media (ATCC, cat. CRL-3276), 1.25 mM N-Acetyl-L-cysteine (Sigma-Aldrich, cat. A9165), 10 mM nicotinamide (Sigma-Aldrich, cat. N0636), 1X B-27 supplement (Thermo Fisher Scientific, cat. 17504044), 1X N-2 supplement (Thermo Fisher Scientific, cat. 17502048), and 10 microM Y-27632 dihydrochloride (Tocris Bioscience, Bristol, United Kingdom, cat. 1254). The 624824-186-R-J2-PDC line was cultured in 6C/Colon 1B media, which includes all 6A media components plus 50 ng/mL human EGF recombinant protein (Thermo Fisher Scientific, cat. PHG0311). […]

[1] = second compound 0.00316 µM, first compound 0.0316 µM
[2] = second compound 0.00316 µM, first compound 0.1 µM
[3] = second compound 0.00316 µM, first compound 0.316 µM
[4] = second compound 0.00316 µM, first compound 1 µM
[5] = second compound 0.00316 µM, first compound 3.16 µM
[6] = second compound 0.00316 µM, first compound 10 µM
[7] = second compound 0.01 µM, first compound 0.0316 µM
[8] = second compound 0.01 µM, first compound 0.1 µM
[9] = second compound 0.01 µM, first compound 0.316 µM
[10] = second compound 0.01 µM, first compound 1 µM
[11] = second compound 0.01 µM, first compound 3.16 µM
[12] = second compound 0.01 µM, first compound 10 µM
[13] = second compound 0.0316 µM, first compound 0.0316 µM
[14] = second compound 0.0316 µM, first compound 0.1 µM
[15] = second compound 0.0316 µM, first compound 0.316 µM
[16] = second compound 0.0316 µM, first compound 1 µM
[17] = second compound 0.0316 µM, first compound 3.16 µM
[18] = second compound 0.0316 µM, first compound 10 µM
[19] = second compound 0.1 µM, first compound 0.0316 µM
[20] = second compound 0.1 µM, first compound 0.1 µM
[21] = second compound 0.1 µM, first compound 0.316 µM
[22] = second compound 0.1 µM, first compound 1 µM
[23] = second compound 0.1 µM, first compound 3.16 µM
[24] = second compound 0.1 µM, first compound 10 µM
[25] = second compound 0.316 µM, first compound 0.0316 µM
[26] = second compound 0.316 µM, first compound 0.1 µM
[27] = second compound 0.316 µM, first compound 0.316 µM
[28] = second compound 0.316 µM, first compound 1 µM
[29] = second compound 0.316 µM, first compound 3.16 µM
[30] = second compound 0.316 µM, first compound 10 µM
[31] = second compound 1 µM, first compound 0.0316 µM
[32] = second compound 1 µM, first compound 0.1 µM
[33] = second compound 1 µM, first compound 0.316 µM
[34] = second compound 1 µM, first compound 1 µM
[35] = second compound 1 µM, first compound 3.16 µM
[36] = second compound 1 µM, first compound 10 µM
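Further: compound exposure lasted seven days before viability was read.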
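Wherever viability, T/C is given: percent of vehicle DMSO treated spheroid viability so 100% = untreated.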

## C=CC(=O)N1CCN(c2nc(=O)n(-c3c(C)ccnc3C(C)C)c3nc(-c4c(O)cccc4F)c(F)cc23)C(C)C1 (centres undefined) + CC(Nc1ccc2c(c1)OCCn1cc(N3C(=O)OCC3C(F)F)nc1-2)C(N)=O
Second compound 0.00316 µM
  IC50: > 10 µM
Second compound 0.01 µM
  IC50: > 10 µM
Second compound 0.0316 µM
  IC50: > 10 µM
Second compound 0.1 µM
  IC50: > 10 µM
Second compound 0.316 µM
  IC50: > 10 µM
Second compound 1 µM
  IC50: 8.04 µM
[1]
  viability, T/C: 101%
[2]
  viability, T/C: 99.6%
[3]
  viability, T/C: 103%
[4]
  viability, T/C: 99.3%
[5]
  viability, T/C: 91%
[6]
  viability, T/C: 106%
[7]
  viability, T/C: 96.9%
[8]
  viability, T/C: 85%
[9]
  viability, T/C: 90.4%
[10]
  viability, T/C: 87.9%
[11]
  viability, T/C: 92.5%
[12]
  viability, T/C: 98.2%
[13]
  viability, T/C: 134%
[14]
  viability, T/C: 119%
[15]
  viability, T/C: 101%
[16]
  viability, T/C: 86%
[17]
  viability, T/C: 85.8%
[18]
  viability, T/C: 93.3%
[19]
  viability, T/C: 88.4%
[20]
  viability, T/C: 84.4%
[21]
  viability, T/C: 98.3%
[22]
  viability, T/C: 104%
[23]
  viability, T/C: 89.5%
[24]
  viability, T/C: 97.7%
[25]
  viability, T/C: 80.9%
[26]
  viability, T/C: 80.5%
[27]
  viability, T/C: 71%
[28]
  viability, T/C: 74.2%
[29]
  viability, T/C: 72.5%
[30]
  viability, T/C: 68.1%
[31]
  viability, T/C: 86%
[32]
  viability, T/C: 67.6%
[33]
  viability, T/C: 66.3%
[34]
  viability, T/C: 80.3%
[35]
  viability, T/C: 86.9%
[36]
  viability, T/C: 43.5%

## CNC(=O)c1ccc(N2C(=S)N(c3ccc(C#N)c(C(F)(F)F)c3)C(=O)C2(C)C)cc1F + COc1c(OCCCN2CCOCC2)ccc2c3n(c(=NC(=O)c4cnc(N)nc4)nc12)CCN3
Second compound 0.00316 µM
  IC50: > 10 µM
Second compound 0.01 µM
  IC50: > 10 µM
Second compound 0.0316 µM
  IC50: > 10 µM
Second compound 0.1 µM
  IC50: 0.0694 µM
Second compound 0.316 µM
  IC50: < 0.0316 µM
Second compound 1 µM
  IC50: < 0.0316 µM
[1]
  viability, T/C: 89.8%
[2]
  viability, T/C: 76.3%
[3]
  viability, T/C: 74.8%
[4]
  viability, T/C: 66.8%
[5]
  viability, T/C: 103%
[6]
  viability, T/C: 93.4%
[7]
  viability, T/C: 87.6%
[8]
  viability, T/C: 96.8%
[9]
  viability, T/C: 102%
[10]
  viability, T/C: 85.8%
[11]
  viability, T/C: 104%
[12]
  viability, T/C: 92.7%
[13]
  viability, T/C: 84.5%
[14]
  viability, T/C: 85.3%
[15]
  viability, T/C: 82.1%
[16]
  viability, T/C: 81%
[17]
  viability, T/C: 76.6%
[18]
  viability, T/C: 66.6%
[19]
  viability, T/C: 62.9%
[20]
  viability, T/C: 42.6%
[21]
  viability, T/C: 49.1%
[22]
  viability, T/C: 44.5%
[23]
  viability, T/C: 42.9%
[24]
  viability, T/C: 40.2%
[25]
  viability, T/C: 43.3%
[26]
  viability, T/C: 29.4%
[27]
  viability, T/C: 31.3%
[28]
  viability, T/C: 32.4%
[29]
  viability, T/C: 36.7%
[30]
  viability, T/C: 24.4%
[31]
  viability, T/C: 34.9%
[32]
  viability, T/C: 30.6%
[33]
  viability, T/C: 38.3%
[34]
  viability, T/C: 34.2%
[35]
  viability, T/C: 29.3%
[36]
  viability, T/C: 24.8%
